Data set [1] relates to A549 human lung carcinoma cells. The arrangement: method as in PMID 24763048. The conditions noted are these: as compared with untreated cells; cited from earlier work.
The test system of a further data set is U266 human myeloma cells. The arrangement: method as in PMID 20542334. The note with it: cited from earlier work.
The next data set deals with A2780 cells. The arrangement: method as in PMID 22322463. The conditions noted are these: cited from earlier work.
For data set [2], the system named is A2780 cells with acquired resistance to cisplatin. The arrangement: method as in PMID 22322463. The note with it: cited from earlier work.
The subject of data set [3] is MRC-5 normal fibroblast cell line. In words: In vitro cytotoxicity testing (MTT assay), MRC-5. In kind it is cell-based, human. The note with it: 24 h exposure time; for IC50: MTT assay, read-out: IC50 ± SD, MRC5. As for the experimental part: (§1) The cell lines were cultured, according to the supplier´s instructions, in RPMI-1640 medium supplemented with 10% of fetal calf serum, 1% of 2 mM glutamine, and 1% penicillin/streptomycin. All cell lines were grown as adherent monolayers at 37 °C and 5% CO2 in a humidified atmosphere.

Data set [4] deals with A2780R cisplatin-resistant ovarian carcinoma cell line. In words: In vitro cytotoxicity testing (MTT assay), A2780R. In kind it is cell-based, human. The conditions noted are these: 24 h exposure time; for IC50: MTT assay, read-out: IC50 ± SD, A2780R. On the procedure: as §1
Data set [5] has as its system A2780 human ovarian carcinoma cell line. The data set is described as follows: In vitro cytotoxicity testing (MTT assay), A2780. In kind it is cell-based. The note with it: 24 h exposure time; for IC50: MTT assay, read-out: IC50 ± SD, A2780. As for the experimental part: Human A2780 ovarian carcinoma, A2780R cisplatin-resistant ovarian carcinoma and MRC-5 normal fibroblast cell lines were supplied by the European Collection of Cell Cultures (ECACC). The cell lines were cultured, according to the supplier´s instructions, in RPMI-1640 medium supplemented with 10% of fetal calf serum, 1% of 2 mM glutamine, and 1% penicillin/streptomycin. All cell lines were grown as adherent monolayers at 37 °C and 5% CO2 in a humidified atmosphere.

Data set [6] relates to A2780 human ovarian carcinoma cells. In words: Cell cycle analysis by flow cytometry (PI/RNase staining). It counts as cell-based. The note with it: A2780 cells treated at IC50 concentration, 24 h; for S cell cycle phase population: control 9.0% ± 1.9%; for G2 cell cycle phase population: control 24.0% ± 2.6%; for G0/G1 cell cycle phase population: control 66.3% ± 3.8%. On the procedure: The obtained results are depicted in Figure 4.
A2780 cells (1.0 × 10^6 per well) were pre-incubated in a six-well plate for 24 h, as described above. […] After 24 h, floating cells were collected and attached cells were harvested using trypsin/EDTA in PBS. Total cells were washed twice with PBS and fixed in 70% ethanol. Cells were resuspended in PBS and DNA staining was achieved by a solution of propidium iodide (PI) supplemented with RNase A (30 min, 25 °C, in the dark). After that, the cells were washed (PBS), resuspended (PBS), and DNA content was measured using flow cytometry (CytoFlex, Beckman Coulter, Brea, CA, USA) detecting emission of DNA-bound PI (maximum at 617 nm) after excitation at 535 nm. The data were analysed using CytExpert^TM software (Beckman Coulter).

The nature of data set [7]: Stability in DMF-d7 (1H and 31P-NMR). The conditions noted are these: 1H-NMR and 31P-NMR, ambient temperature. It counts as physicochemical.
Data set [8] is described as follows: Solution behaviour in water/DMF mixture (1H and 31P-NMR). The note with it: 50% DMF-d7/50% D2O, ca. 1 mM, 48 h at ambient temperature. It counts as physicochemical. As for the experimental part:
Only one set of ^1H-NMR signals (e.g., C3–H signal at 6.50 ppm) and one ^31P-NMR signal (34.8 ppm) were detected on the fresh solution, and no changes were observed even after 48 h of standing at ambient temperature. The positions of the ^1H and ^31P-NMR signals detected on the solution of 8 in the 50% DMF-d7/50% D2O mixture were different from those of free H2Me4Claza (C3–H signal at 6.32 ppm; Figure 3), PPh3 (^31P-NMR signal at −4.7 ppm), the oxidized triphenylphosphane (O=PPh3; ^31P-NMR signal at 32.4 ppm) or [AuCl(PPh3)] (^31P-NMR signal at 34.2 ppm) dissolved in the same mixture of solvents (Figure S6).
(§2) Complex 8 and [AuCl(PPh3)] […] Similar solutions were prepared with 1 or 5 mol equivs of GSH, Cys, or BSA. ^1H and ^31P-NMR spectra were recorded at different time points over 48 h at 300 K. The obtained ^1H-NMR spectra were calibrated against the residual signal of water found at 4.75 ppm, while the ^31P-NMR spectra were referenced as described above.

Data set [9] concerns the target T1, bovine serum albumin (BSA) (Bos taurus, UniProt P02769).
T1 construct: purchased Sigma-Aldrich Co. (Prague, Czech Republic) and Fisher-Scientific Co. (Pardubice, Czech Republic)
The data set is described as follows: Interaction study with bovine serum albumin (NMR). The note with it: 50% DMF-d7/50% D2O. As for the experimental part: An interaction of 8 with bovine serum albumin (BSA) resulted immediately in a white turbidity, which was subsequently removed by centrifugation (13,000 rpm for 3 min; Mini Spin, Eppendorf AG, Hamburg, Germany). The ^1H-NMR spectrum recorded on the obtained supernatant contained the signals of the released N-donor ligand, with the signal positions (e.g., C3–H signal at 6.36 ppm) being consistent with those detected for free H2Me4Claza in the same mixture of solvents (Figure S8). No signals were detected in the ^31P-NMR spectra recorded on the mentioned supernatant.
as §2

Structures are written as SMILES. A value given as a limit tells only on which side of the number the result lay.

T1 sequence (P02769 25-607): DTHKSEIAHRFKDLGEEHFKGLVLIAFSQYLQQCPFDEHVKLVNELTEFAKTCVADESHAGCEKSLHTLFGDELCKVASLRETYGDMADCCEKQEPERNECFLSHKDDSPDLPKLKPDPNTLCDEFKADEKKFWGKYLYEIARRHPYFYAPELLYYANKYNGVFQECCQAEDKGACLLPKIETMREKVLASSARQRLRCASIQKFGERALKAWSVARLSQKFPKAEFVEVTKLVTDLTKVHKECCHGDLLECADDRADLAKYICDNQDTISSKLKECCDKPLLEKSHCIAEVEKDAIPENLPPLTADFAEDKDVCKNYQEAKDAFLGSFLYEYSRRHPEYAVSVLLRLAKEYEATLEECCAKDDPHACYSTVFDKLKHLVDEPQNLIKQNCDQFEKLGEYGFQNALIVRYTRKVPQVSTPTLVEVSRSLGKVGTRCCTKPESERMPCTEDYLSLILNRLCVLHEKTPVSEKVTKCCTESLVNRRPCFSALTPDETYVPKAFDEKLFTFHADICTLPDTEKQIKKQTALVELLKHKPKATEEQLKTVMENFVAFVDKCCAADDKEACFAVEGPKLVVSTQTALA

Take `CC[PH](CC)(CC)[Au][S][C@@H]1O[C@H](COC(C)=O)[C@@H](OC(C)=O)[C@H](OC(C)=O)[C@H]1OC(C)=O` [auranofin, triethylphosphane-(2,3,4,6-tetra-O-acetyl-β-D-thiopyranosato)gold(I) complex]: the “sub-G1 cell cycle phase population increase” value in [1] was over 13%. For the same compound, the cell cycle arrest entry in the data set on U266 human myeloma cells was “G0/G1 cell cycle arrest”. In the data set on A2780 cells, the “potency in vitro against A2780 cells relative to cisplatin” value is given as “ca. three-fold higher”. Also, the “RF (resistance factor)” value in data set [2] is reported as “ca. 0.9”.

As for `Brc1c[n]([Au][P](c2ccccc2)(c2ccccc2)c2ccccc2)c2ncccc12` [Complex 3, [Au(3Braza)(PPh3)]], in [3], the “SI = selectivity index (IC50(MRC5)/IC50(A2780))” value (shortened to “SI = selectivity index”) was found to be 1.2 and the 50% inhibitory concentration (IC50) worked out at 27.3 ± 1.7 µM. Also, in data set [4], the “RF = resistance factor (IC50(A2780R)/IC50(A2780))” value (“RF = resistance factor” below) was determined as 0.9 and the IC50 is 21.3 ± 0.8 µM. In data set [5], the “in vitro cytotoxicity against A2780 compared with cisplatin” value is recorded as “comparable” and the IC50 stood at 23.3 ± 3.4 µM.

As for `Brc1cnc2c(cc[n]2[Au][P](c2ccccc2)(c2ccccc2)c2ccccc2)c1` [Complex 5, [Au(5Braza)(PPh3)]], in data set [3], the “SI = selectivity index” value worked out at 8.4 and the half-maximal inhibitory concentration (IC50) stood at 26 ± 4.2 µM. Also, the 50% inhibitory concentration (IC50) in [4] stood at 14.4 ± 3.3 µM. For the same compound, in [5], the half-inhibitory concentration (IC50) turned out to be 3.1 ± 0.5 µM. Besides, in data set [6], the “cell cycle modification (phase arrest)” value is given as “G2-arrest”, the “S cell cycle phase population” value was 9.1% ± 2.1%, the “G2 cell cycle phase population” value is given as 30.4% ± 2.9% and the “G0/G1 cell cycle phase population” value is recorded as 58.1% ± 5.8%.

With `Clc1c[n]([Au][P](c2ccccc2)(c2ccccc2)c2ccccc2)c2ncc(Br)cc12` [Complex 6, [Au(3Cl5Braza)(PPh3)]], in data set [3], the “SI = selectivity index” value was determined as 1.2 and the IC50 was determined as 26.5 ± 3.7 µM. For the same compound, in [4], the “RF = resistance factor” value is listed as 0.6 and the IC50 was 13.8 ± 2.1 µM. In data set [5], the “in vitro cytotoxicity against A2780 compared with cisplatin” value is recorded as “comparable” and the IC50 was 22.9 ± 2.3 µM.

Take `[Cl][Au].c1ccc(P(c2ccccc2)c2ccccc2)cc1` [[AuCl(PPh3)], chlorido-triphenylphosphanegold(I) complex]: the “stability in DMF-d7” value in data set [7] was “low stability”.

Consider `N.N.[Cl][Pt][Cl]` [Cisplatin, cisplatin, reference compound], for which the results for the IC50 in [3], in data set [4] and in [5] were over 50 µM, over 50 µM and 20.3 ± 2.3 µM, respectively. Besides, in [6], the “cell cycle modification (phase arrest)” value is given as “S-arrest”. Moreover, the “S cell cycle phase population” value in data set [6] is 44.8% ± 2.9%.

Take `Cc1cc2c(Cl)ccnc2[n]1[Au][P](c1ccccc1)(c1ccccc1)c1ccccc1` [Complex 8, [Au(2Me4Claza)(PPh3)]]: in [3], the “SI = selectivity index” value amounted to 9.6 and the concentration for half-maximal inhibition (IC50) is 26.9 ± 3.6 µM. The hydrolytic stability result in [8] was “hydrolytically stable”. Also, in data set [4], the IC50 turned out to be 8.9 ± 3.8 µM. Moreover, in data set [5], the “in vitro cytotoxicity against A2780 compared with cisplatin” value is recorded as “more than seven times higher” and the 50% inhibitory concentration (IC50) turned out to be 2.8 ± 0.7 µM. For the same compound, in the data set “Solubility”, the solubility in water entry is listed as “low solubility in water”. For the same compound, the “interaction with BSA” value in data set [9] is listed as “replaces the N-donor ligand 2Me4Claza”.

With `Ic1c[n]([Au][P](c2ccccc2)(c2ccccc2)c2ccccc2)c2ncccc12` [Complex 4, [Au(3Iaza)(PPh3)]], the “SI = selectivity index” value in data set [3] is given as 8.3. Further, the 50% inhibitory concentration (IC50) in data set [3] turned out to be 29.2 ± 5.9 µM; in [4] it was 11 ± 4.7 µM; in [5], 3.5 ± 0.4 µM.

With `Clc1c[n]([Au][P](c2ccccc2)(c2ccccc2)c2ccccc2)c2ncccc12` [Complex 2, [Au(3Claza)(PPh3)]], in [3], the “SI = selectivity index” value is recorded as 1.4 and the IC50 was 31.4 ± 4.9 µM. Further, in data set [4], the “RF = resistance factor” value worked out at 1.0 and the IC50 amounted to 21.7 ± 0.8 µM. In data set [5], the “in vitro cytotoxicity against A2780 compared with cisplatin” value was “comparable” and the IC50 was 22.4 ± 5.7 µM.

Turning to `Brc1cnc2c(c1)c(I)c[n]2[Au][P](c1ccccc1)(c1ccccc1)c1ccccc1` [Complex 7, [Au(3I5Braza)(PPh3)]], in data set [3], the “SI = selectivity index” value is recorded as 1.4 and the concentration for half-maximal inhibition (IC50) is 27.3 ± 2.6 µM. In data set [4], the “RF = resistance factor” value was 1.1 and the IC50 worked out at 22.1 ± 0.3 µM. Further, in data set [5], the “in vitro cytotoxicity against A2780 compared with cisplatin” value is “comparable” and the IC50 came to 20.2 ± 2.5 µM.

Turning to `c1ccc([P]([Au][n]2ccc3cccnc32)(c2ccccc2)c2ccccc2)cc1` [Complex 1, [Au(aza)(PPh3)]], in [3], the “SI = selectivity index” value was determined as 2.0 and the half-inhibitory concentration (IC50) stood at 7.7 ± 1.7 µM. In addition, in [4], the “RF = resistance factor” value is recorded as 1.2 and the IC50 stood at 4.4 ± 0.8 µM. In addition, the IC50 in [5] came to 3.8 ± 1.1 µM. Besides, in data set [6], the “cell cycle modification (phase arrest)” value was “G2-arrest”, the “S cell cycle phase population” value is 7.2% ± 0.9%, the “G2 cell cycle phase population” value is recorded as 44.0% ± 2.3% and the “G0/G1 cell cycle phase population” value is reported as 46.0% ± 2.8%. Further, the “solubility in the used medium” value in the data set “Solubility” (cell culture medium, dilution of 50 mM DMF stock) is “less soluble”.

The values are drawn from paper PMC5187884, “In Vitro Antitumor Active Gold(I) Triphenylphosphane Complexes Containing 7-Azaindoles” (International Journal of Molecular Sciences, 2016).
